Common to all, as to assay: cells
Holding throughout (set-up): CellTiter-Glo 2.0 luminescence proliferation/viability assay, single agents, human tumour cell line panel

One assay concerns IM-95. Particulars: Homo sapiens, IM95, 96 h; single agent; read-out: IC50 SMACm. An outline of the steps: (§1)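 Human tumour cell lines were seeded into assay plates and held at 37°C with 5% CO2 for twenty-four hours, then exposed in triplicate to rising concentrations of the SMAC mimetic, from 4.5 nM to 10 μM, with DMSO as control. After 96 h, viability was read as CellTiter-Glo2.0 luminescence to derive single-agent IC50 values.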

The test system of another assay is DLD-1. Particulars: Homo sapiens, DLD-1, 96 h; single agent; read-out: IC50 SMACm. An outline of the steps:
as §1

In the next assay the test system is SNU1040. Particulars: 96 h; single agent; read-out: IC50 SMACm. An outline of the steps:
as §1

The next assay relates to COLO-741. Particulars: Homo sapiens, COLO-741, 96 h; single agent; read-out: IC50 SMACm. An outline of the steps:
as §1

Another assay concerns HCC1588. Particulars: HCC1588, 96 h; single agent; read-out: IC50 SMACm. Summed up: as §1
A further assay deals with Panc 04.03. Particulars: Homo sapiens, Panc 04.03, 96 h; single agent; read-out: IC50 SMACm. Summed up:
as §1

A further assay deals with SNU-324. Particulars: 96 h; single agent; read-out: IC50 SMACm. An outline of the steps: as §1
Another assay concerns NCI-H2122. Particulars: Homo sapiens, NCI-H2122, 96 h; single agent; read-out: IC50 SMACm. Summed up:
as §1

Another assay concerns SNU-668. Particulars: SNU668, 96 h; single agent; read-out: IC50 SMACm. Summed up: as §1
The test system of the next assay is SK-LU-1. Particulars: Homo sapiens, SK-LU-1, 96 h; single agent; read-out: IC50 SMACm. An outline of the steps:
as §1

A further assay concerns COLO678. Particulars: Homo sapiens, COLO-678, 96 h; single agent; read-out: IC50 SMACm. Summed up: as §1
The subject of another assay is C75. Particulars: 96 h; single agent; read-out: IC50 SMACm. An outline of the steps:
as §1

The next assay deals with SNU1047. Particulars: 96 h; single agent; read-out: IC50 SMACm. Summed up: as §1
Another assay has as its system SNU1181. Particulars: 96 h; single agent; read-out: IC50 SMACm. An outline of the steps:
as §1

In a further assay the test system is KM12L4. Particulars: KM 12L4, 96 h; single agent; read-out: IC50 SMACm. An outline of the steps: as §1

Molecules are shown by their SMILES.

As a reminder, the IC50 is the point on the concentration scale where inhibition reaches its midpoint. Regarding `CN[C@@H](C)C(=O)Nc1ccc(-c2c(-c3cccnc3OC)nc3cc(C)ccn23)c(C#Cc2ccc3c(C)nccc3c2)n1` [SMACm, BI 891065], the IC50 in the assay on IM-95 came out at 1.24 µM; in the assay with DLD-1, 5.19 µM; with SNU1040 it was 3.59 µM; in the assay on COLO-741, 0.831 µM; in the assay with HCC1588 it was 3.07 µM; with Panc 04.03, 4.68 µM. The concentration for half-maximal inhibition (IC50) with SNU-324 was found to be 4.7 µM; in the assay on NCI-H2122 it was 5.15 µM; in the assay with SNU-668, 6.29 µM; with SK-LU-1, 0.495 µM; with COLO678 it was 2.59 µM; in the assay on C75, 2.8 µM. Also, the IC50 in the assay on SNU1047 turned out to be 2.79 µM; in the assay with SNU1181, 5.08 µM; in the assay on KM12L4 it was 4.04 µM.

(Values after article PMC12490239, “Combining BET inhibition with SMAC mimetics restricts tumor growth and triggers immune surveillance in preclinical cancer models” (Cell Reports Medicine, 2025).)
